Results on six compounds are retold here after PubChem BioAssay AID1963978 (Molecular Pharmacology Branch, DTP, NCI, 2024).

Molecules are shown by their SMILES.

The assay relates to 616215-338-R-J1-PDC spheroids with HUVEC/MSC, viability. The assay can be described thus: Anticancer human tumor 616215-338-R-J1-PDC patient-derived colon adenocarcinoma cell line growth inhibition [PI3K]. To be noted: for viability, T/C: stronger effect = lower value. In outline: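 Combination activity was assessed by viability in multicellular tumor spheroids carrying HUVEC and MSC components. Agents were tested with PI3K inhibitors from a Cmax-based top dose (or 10 microM) downward in half-log increments.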

Where [1] appears, read: curve of first compound, second compound 0.00316 µM.
The mark [2] stands for this setting: curve of first compound, second compound 0.01 µM.
The mark [3] stands for this setting: curve of first compound, second compound 0.0316 µM.
Setting [4] is: curve of first compound, second compound 0.1 µM.
The mark [5] stands for this setting: curve of first compound, second compound 0.316 µM.
Setting [6] is: curve of first compound, second compound 1 µM.
Where [7] appears, read: second compound 0.00316 µM, first compound 0.0316 µM.
Setting [8] is: second compound 0.00316 µM, first compound 0.1 µM.
[9] abbreviates: second compound 0.00316 µM, first compound 0.316 µM.
Setting [10] is: second compound 0.00316 µM, first compound 1 µM.
The mark [11] stands for this setting: second compound 0.01 µM, first compound 0.0316 µM.
Where [12] appears, read: second compound 0.01 µM, first compound 0.1 µM.
Setting [13] is: second compound 0.01 µM, first compound 0.316 µM.
Where [14] appears, read: second compound 0.01 µM, first compound 1 µM.
Where [15] appears, read: second compound 0.0316 µM, first compound 0.0316 µM.
The mark [16] stands for this setting: second compound 0.0316 µM, first compound 0.1 µM.
Setting [17] is: second compound 0.0316 µM, first compound 0.316 µM.
[18] abbreviates: second compound 0.0316 µM, first compound 1 µM.
[19] abbreviates: second compound 0.1 µM, first compound 0.0316 µM.
[20] abbreviates: second compound 0.1 µM, first compound 0.1 µM.
Where [21] appears, read: second compound 0.1 µM, first compound 0.316 µM.
[22] abbreviates: second compound 0.1 µM, first compound 1 µM.
Setting [23] is: second compound 0.316 µM, first compound 0.0316 µM.
The mark [24] stands for this setting: second compound 0.316 µM, first compound 0.1 µM.
The mark [25] stands for this setting: second compound 0.316 µM, first compound 0.316 µM.
Where [26] appears, read: second compound 0.316 µM, first compound 1 µM.
Setting [27] is: second compound 1 µM, first compound 0.0316 µM.
The mark [28] stands for this setting: second compound 1 µM, first compound 0.1 µM.
[29] abbreviates: second compound 1 µM, first compound 0.316 µM.
[30] abbreviates: second compound 1 µM, first compound 1 µM.
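Also: spheroids exposed to agents for seven days before the viability read.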

Regarding `CC1(C)CCC(CN2CCN(c3ccc(C(=O)NS(=O)(=O)c4ccc(NCC5CCOCC5)c([N+](=O)[O-])c4)c(Oc4cnc5[nH]ccc5c4)c3)CC2)=C(c2ccc(Cl)cc2)C1` + COc1c(OCCCN2CCOCC2)ccc2c3n(c(=NC(=O)c4cnc(N)nc4)nc12)CCN3, the half-inhibitory concentration (IC50) was over 10000 nM under setting [1]; over 10000 nM under setting [2]; over 10000 nM under setting [3]; over 10000 nM under setting [4]; under 31.6 nM under setting [5]; under 31.6 nM under setting [6]. For the same compound, the viability, T/C under setting [7] was 94%; the viability, T/C under setting [8] is 103%; the viability, T/C under setting [9] is 109%; the viability, T/C under setting [10] is 99.7%; the viability, T/C (second compound 0.00316 µM, first compound 3.16 µM) was 88.7%; the viability, T/C (second compound 0.00316 µM, first compound 10 µM) is 95.2%. For the same compound, the viability, T/C under setting [11] was 84.7%; the viability, T/C under setting [12] is 95.1%; the viability, T/C under setting [13] is 98.2%; the viability, T/C under setting [14] was 98.7%; the viability, T/C (second compound 0.01 µM, first compound 3.16 µM) is 84.2%; the viability, T/C (second compound 0.01 µM, first compound 10 µM) is 96.8%. Moreover, the viability, T/C was 96.8% under setting [15]; 99.4% under setting [16]; 100% under setting [17]; 102% under setting [18]; 93.1% (second compound 0.0316 µM, first compound 3.16 µM); 109% (second compound 0.0316 µM, first compound 10 µM). Besides, the viability, T/C by setting is: under setting [19], 96.1%; under setting [20], 93.6%; under setting [21], 107%; under setting [22], 87.8%; (second compound 0.1 µM, first compound 3.16 µM) 83%; (second compound 0.1 µM, first compound 10 µM) 95.2%. The viability, T/C is 47.4% under setting [23]; 41.2% under setting [24]; 45.5% under setting [25]; 42.5% under setting [26]; 27.6% (second compound 0.316 µM, first compound 3.16 µM); 33.2% (second compound 0.316 µM, first compound 10 µM). Further, the viability, T/C under setting [27] was 24.3%; the viability, T/C under setting [28] was 24.4%; the viability, T/C under setting [29] was 25.5%; the viability, T/C under setting [30] was 21%; the viability, T/C (second compound 1 µM, first compound 3.16 µM) is 13.2%; the viability, T/C (second compound 1 µM, first compound 10 µM) is 30%.

As for `Cn1cnc2c(F)c(Nc3ccc(Br)cc3Cl)c(C(=O)NOCCO)cc21`, the viability, T/C is 96.1% [middle of 4 runs] (compound 0.00949 µM); 94.7% [middle of 4 runs] (compound 0.03 µM); 92.1% [middle of 4 runs] (compound 0.0949 µM); 80.6% [middle of 4 runs] (compound 0.3 µM); 58.5% [middle of 4 runs] (compound 0.949 µM); 45.3% [middle of 4 runs] (compound 3 µM).

In the case of `CC1(C)CCC(Nc2ncc(C(F)(F)F)c(-c3c[nH]c4c(P(C)(C)=O)c(C#N)ccc34)n2)CN1` (configuration not stated), the viability, T/C is, setting by setting: (compound 0.1 µM) 54.8% [middle of 4 runs]; (compound 1 µM) 60.8% [middle of 4 runs]; (compound 3.16 µM) 55.7% [middle of 4 runs]; (compound 10 µM) 0.49% [middle of 4 runs].

Take `CC(C)NCC(C(=O)N1CCN(c2ncnc3c2C(C)CC3O)CC1)c1ccc(Cl)cc1` (configuration not stated): the viability, T/C (compound 0.0316 µM) was 98.8% [middle of 4 runs]; the viability, T/C (compound 0.1 µM) was 94.3% [middle of 4 runs]; the viability, T/C (compound 0.316 µM) is 95.1% [middle of 4 runs]; the viability, T/C (compound 1 µM) is 102% [middle of 4 runs]; the viability, T/C (compound 3.16 µM) is 77.5% [middle of 4 runs]. Moreover, the IC50 (curve of compound) is 6.53 µM [middle of 4 runs].

On to `CCN1CCN(Cc2ccc(Nc3ncc(F)c(-c4cc(F)c5nc(C)n(C(C)C)c5c4)n3)nc2)CC1` + COc1c(OCCCN2CCOCC2)ccc2c3n(c(=NC(=O)c4cnc(N)nc4)nc12)CCN3, for which the IC50 under setting [1] is over 1000 nM; the IC50 under setting [2] is over 1000 nM; the IC50 under setting [3] was over 1000 nM; the IC50 under setting [4] amounted to 185 nM; the IC50 under setting [5] was under 3.16 nM; the IC50 under setting [6] is under 3.16 nM. Moreover, the viability, T/C was 80.7% (second compound 0.00316 µM, first compound 0.00316 µM); 104% (second compound 0.00316 µM, first compound 0.01 µM); 100% under setting [7]; 97.3% under setting [8]; 128% under setting [9]; 90.8% under setting [10]. Further, the viability, T/C was 89.5% (second compound 0.01 µM, first compound 0.00316 µM); 105% (second compound 0.01 µM, first compound 0.01 µM); 104% under setting [11]; 118% under setting [12]; 138% under setting [13]; 87.6% under setting [14]. The viability, T/C was 108% (second compound 0.0316 µM, first compound 0.00316 µM); 109% (second compound 0.0316 µM, first compound 0.01 µM); 103% under setting [15]; 106% under setting [16]; 112% under setting [17]; 55.9% under setting [18]. For the same compound, the viability, T/C was 87.8% (second compound 0.1 µM, first compound 0.00316 µM); 80.3% (second compound 0.1 µM, first compound 0.01 µM); 64.9% under setting [19]; 54.9% under setting [20]; 47.1% under setting [21]; 34.7% under setting [22]. The viability, T/C reads like this: (second compound 0.316 µM, first compound 0.00316 µM) 36.1%; (second compound 0.316 µM, first compound 0.01 µM) 33.8%; under setting [23], 33%; under setting [24], 40.7%; under setting [25], 33.4%; under setting [26], 32%. The viability, T/C is, setting by setting: (second compound 1 µM, first compound 0.00316 µM) 22.3%; (second compound 1 µM, first compound 0.01 µM) 23.4%; under setting [27], 20.6%; under setting [28], 24.6%; under setting [29], 27.2%; under setting [30], 31.1%.

For the compound `CC(C)n1nc(-c2ccc3oc(N)nc3c2)c2c(N)ncnc21`, the viability, T/C reads like this: (compound 0.000316 µM) 95.1% [middle of 4 runs]; (compound 0.001 µM) 95.7% [middle of 4 runs]; (compound 0.00316 µM) 100% [middle of 4 runs]; (compound 0.01 µM) 107% [middle of 4 runs]; (compound 0.0316 µM) 121% [middle of 4 runs]; (compound 0.1 µM) 94.5% [middle of 4 runs]. Moreover, where the note is “curve of compound”, the IC50 was over 100 nM.
